# Reference: patent US20040229785A1, “Screening methods to identify treatments for autoimmune disease” (priority 2002, published 2004)
# Where “and” joins values, the source holds several entries; their conditions need not be identical. Equal entries are not always repeated.
# Tests used:
# B6 (C57BL/6) splenocytes = test: Annexin V/PI flow cytometry of cultured splenocytes with and without TNF-α; type: cell-based, mouse
# Experimental: (§1) Flow cytometry can be performed using a Facscalibur flow cytometer (BD Biosciences, San Jose, Calif.). Samples were incubated for 18-24 hours in the absence or presence of TNF-α (20-50 ng/mL), after which apoptotis can be determined by direct detection using FITC-conjugated annexin V and Propidium Iodide (PI) from R&D Systems (TACS Annexin V-FITC Apoptosis Detection Kit; Minneapolis, Minn.). Early apoptotic cells were defined as positive for annexin V only, whereas late apoptotic cells were defined as being positive for both PI and annexin V.
# (§2) In order to obtain high viability for those assays using splenocytes, gentle treatment throughout the isolation procedure is important. Optimized results were obtained as follows: a mouse is sacrificed by cervical dislocation and the spleen removed via an abdominal incision. The spleen is then gently inflated with several mLs of RPMI/10% FBS using a 22 gauge needle. Any fluid leaking out of the spleen is collected as it contains splenocytes. A small opening is created on one end of the spleen and the splenic tissue expelled through this opening with a “scraping” motion using blunt tipped forceps. The resulting clumps of tissue are homogenized by repeated gentle pipetting. The crude splenocyte preparation is then filtered through a 40 micron mesh filter.
# (§3) The spleen contains a variety of different immune cells. These can be distinguished further into T-cells (mostly CD4 and CD8) and non-T-cells (mostly B-cells and macrophages). Magnetic separation methods were used to sort the splenocytes into T-cell and non-T-cell fractions. For the isolation of T-cells, Miltenyi Biotec's Pan T magnetic bead cocktail were used. This cocktail contains antibodies against CD11b, CD45R, DX5, and Ter-119. As a result, all Non-T cells, i.e. B cells, NK cells, dendritic cells, macrophages, granulocytes, and erythroid cells; are depleted from the sample, leaving only T-cells. For the isolation of non-T-cells, a mixture of magnetic beads directed against CD90 and Ter-119 were used. This depletes all T-cells and erythroid cells, leaving only the non-T cells.
# (§4) The difference in sensitivity between B6 and NOD splenocytes to TNF-α was then examined. B6 and NOD splenocytes were plated out in U-bottom shaped 96 well plates at a density of 25,000 cells per well in 100 μL of medium, with and without 50 ng/mL TNF-α added. The cells were cultured for 24 hrs, stained with Annexin V and PI, and analyzed by flow cytometry (FIG. 10).
# (§5) After culture at 37° C. for 26 hours, the cell death of NOD vs. B6 T cells and NOD vs. B6 non T cells was quantified by AnnexinV and PI (FIG. 11). Late death is shown for cells obtained from a single NOD and a single B6 mouse.
# (§6) Samples obtained from a single NOD and a single B6 mouse were also examined for cell death by PI staining alone (FIG. 12) after culturing at 32° C. for 18 hours.
# (§7) Therefore, Annexin V binding/PI uptake measurements were used to measure specific cellular lineages in the human PBLs based on fluorescence activated cell scanning (FACS) analysis. PBLs were stained with anti-CD3, anti-Annexin V, and anti-PI antibodies immediately after isolation. After 12 or 24 hours in culture in the presence or absence of TNF-α, cells were analyzed by FACS for Annexin V/PI binding to defined lineages. Over the course of these studies several important differences emerged in the behavior of human PBLs compared to NOD splenocytes (Table 1). First, human PBL isolates contained a large amount of cell fragments and debris, both at baseline and after culture. This finding was not evident in the NOD splenocyte preparations. Comparing the responses of non-diabetic C57BL/6 murine splenocytes to non-diabetic humans PBLs, the viability of C57BL/6 splenocytes remained constant during a 24 hour period of culture in vitro, whereas a progressive increase in spontaneous cell death of human PBLs was regularly observed over this interval. […]
# NOD splenocytes = test: as above; type: cell-based, mouse; settings: for TNF sensitivity of T cell subpopulation: FIG. 13
# Experimental: as §1, §2, §3, §4, §5, §6, §7
# [1] = tested on: PBLs from Type I diabetics; test: FACS Annexin V binding/PI uptake in human PBLs cultured with or without TNF-α; type: cell-based; set-up: increase in Annexin V binding to CD3+ PBLs in response to TNF-α: dose or concentration left out as unconfirmed
# Experimental: Therefore, Annexin V binding/PI uptake measurements were used to measure specific cellular lineages in the human PBLs based on fluorescence activated cell scanning (FACS) analysis. PBLs were stained with anti-CD3, anti-Annexin V, and anti-PI antibodies immediately after isolation. After 12 or 24 hours in culture in the presence or absence of TNF-α, cells were analyzed by FACS for Annexin V/PI binding to defined lineages. Over the course of these studies several important differences emerged in the behavior of human PBLs compared to NOD splenocytes (Table 1). First, human PBL isolates contained a large amount of cell fragments and debris, both at baseline and after culture. This finding was not evident in the NOD splenocyte preparations. Comparing the responses of non-diabetic C57BL/6 murine splenocytes to non-diabetic humans PBLs, the viability of C57BL/6 splenocytes remained constant during a 24 hour period of culture in vitro, whereas a progressive increase in spontaneous cell death of human PBLs was regularly observed over this interval. This differential response of cell viability to culture in vitro may possibly reflect an intrinsic fragility of human PBLs and/or the greater rigors of cell isolation required for purification of human PBLs as compared with murine splenocytes. […] Another difference between PBLs from human Type I diabetics and NOD splenocytes is that the evolution of TNF-α-induced apoptosis in NOD splenocytes occurs with a predictable time course that is much more rapid than that seen in PBLs from Type I diabetics. […] By 24 hours, there was little further increase in the fraction of cells binding Annexin V. However, nuclear binding of PI to NOD splenocytes had increased substantially reflecting a further progression of the apoptotic program. By contrast, cell death in response to TNF-α in human CD3 positive-PBLs, when evident, evolved much more slowly. For example, increased Annexin V binding was rarely seen after 12 hours and at 24 hours, increased Annexin V uptake, when present, was generally not accompanied by increased PI uptake.
# The results generated using CD3, CD19, and CD11b positive PBLs isolated from 33 Type I diabetics and from control subjects (see Table 1) support the following conclusions. […] In these studies, PBLs were processed in parallel from a Type I diabetic and an age/sex matched control non-diabetic subject. Immediately after isolation, the PBLs were incubated with Annexin V and propidium iodide and subjected to FACS analysis (left column of flow charts; “before incubation”). […] The cells were then incubated in the absence (center panels) or presence (right panels) of TNF-α (20 ng/mL). After 12 hours, these cells were stained with Annexin V and PI and analyzed by FACS.
# [2] = tested on: PBLs from non-diabetic control subjects; test: as above; type: cell-based
# Experimental: as §7
# The results generated using CD3, CD19, and CD11b positive PBLs isolated from 33 Type I diabetics and from control subjects (see Table 1) support the following conclusions. […] After 12 hours, these cells were stained with Annexin V and PI and analyzed by FACS.
# [3] = tested on: PBLs from Type I diabetics; test: Trypan Blue uptake by human PBLs incubated with TNF-α; type: cell-based; settings: TNF-α 20 ng/mL, 24 hours, FIG. 14A
# Experimental: (§8) In an initial set of assays for characterizing the response of PBLs from human diabetics and control subjects to incubation with TNF-α or other candidate compounds in vitro, uptake of the dye Trypan Blue, a relatively nonspecific measure of cell death, was used. […] However, there appeared to be an inverse correlation between the age-at-onset and the extent of the TNF-α induced-increase in Trypan Blue uptake by the PBLs (FIG. 14C).
# [4] = tested on: PBLs from non-diabetic subjects; test: as above; type: cell-based; settings: TNF-α 20 ng/mL, 24 hours, FIG. 14B
# Experimental: as §8
# [5] = tested on: CD3+ T cells from a non-diabetic control subject; type: cell-based, human
# Source text: (§9) II. Remove red blood cells and collect lymphocyte subsets:
# (§10) 11. Acquire timed and/or absolute count/volume data
# (§11) The automated method described herein has also been used for the assay of cell viability in a human patient. Blood samples were obtained from a patient with Type I diabetes and from a non-diabetic control subject. During the assay procedure, a CD3^+ T cell subset was isolated from each (Step 11.12 from the protocol). The cells were then contacted with TNF-α and cell viability was measured and compared to that found in control samples which were not contacted with TNF-α.
# [6] = tested on: CD3+ T cells from a patient with Type I diabetes; type: cell-based, human
# Source text: as §9, §10, §11
# [7] = tested on: NOD mouse splenocytes (T cells, non-T cells)
# Experimental: (§12) Following is an optimized protocol for the automated analysis of cell sensitivity to compounds that induce cell death via apoptosis or necrosis.
# (§13) Place on AutoMACS cell sorter for CD-subset separation (magnetic bead separation method or direct RBC lysis)
# (§14) Pipette 100 μL cell suspension (25,000 cells) into each 96-well plate well, ×3 for triplicates
# (§15) Add 5 μL of reagent (e.g., TNF-α, another induced or cell death, or mixtures containing up to 10 different chemical reagent combinations for the induction of cell death), to each well to be treated, ×3 for triplicates.
# (§16) For flow cytometry (analysis), remove 90 μL of re-suspended sample material from each sample well
# (§17) Add 90 μl of cell stain solution to each sample flow test tube above to stain cells for identification
# (§18) The sensitivity of T cell populations from NOD mice were re-examined using the automated assay described above.
# (§19) Non-T cells from NOD and B6 mice were also examined for sensitivity to TNF-α-induced cell death.
# [8] = tested on: B6 mouse splenocytes (T cells, non-T cells)
# Experimental: as §12, §13, §14, §15, §16, §17, §18, §19
substance,measurement,setting,value
TNF-α,cell death of T cells by PI staining alone on exposure to TNF-α,"B6 (C57BL/6) splenocytes; B6 T cells, 32° C., 18 hours, single mouse, FIG. 12",do not exhibit TNF induced death
same,late cell death of T cells by AnnexinV and PI on exposure to TNF-α,"B6 (C57BL/6) splenocytes; B6 T cells, 37° C., 26 hours, single mouse, FIG. 11",increased viability
same,After culture with THF-α (Mean % cell death ± SE),"B6 (C57BL/6) splenocytes; C57BL/6 mouse, overnight early T-cell death, n=7 pairs",10.2 ± 2.5%
same,TNF sensitivity of T cell subpopulation,NOD splenocytes; NOD CD4+ T cells,not TNF sensitive
same,TNF sensitivity of T cell subpopulation,NOD splenocytes; NOD CD8+ T cells,greatest TNF sensitivity
same,cell death of T cells by PI staining alone on exposure to TNF-α,"NOD splenocytes; NOD T cells, 32° C., 18 hours, single mouse, FIG. 12",death of a subpopulation of T cells
same,late cell death of T cells by AnnexinV and PI on exposure to TNF-α,"NOD splenocytes; NOD T cells, 37° C., 26 hours, single mouse, FIG. 11",further accelerated
same,After culture with THF-α (Mean % cell death ± SE),"NOD splenocytes; NOD mouse, overnight early T-cell death, n=5 pairs",32.9 ± 3.97%
same,Annexin V binding,"NOD splenocytes; NOD splenocytes, 12-hour incubation with TNF-α",clear increase in Annexin V binding
same,"sensitivity of splenocytes to TNF-α (viability, Annexin V/PI)","NOD splenocytes; NOD vs B6 control splenocytes, 50 ng/mL TNF-α, 24 hrs, 25,000 cells per well, FIG. 10",much more sensitive
same,staining by Annexin V+PI+,"[1]; PBLs from a diabetic patient vs matched control, TNF-α 20 ng/mL, 12 hours, FIGS. 15A, 15B",increased significantly and selectively
same,Annexin V staining after culture in the presence of TNF-α,"[1]; PBLs of two Type I diabetic subjects (FIGS. 15A, 15B), TNF-α 20 ng/mL, 12 hours, without TNF-α 6.5% and 6.2%",11.3% and 13.4%
same,increase in Annexin V binding to CD3+ PBLs in response to TNF-α,"[1]; Type I diabetic vs non-diabetic PBLs, 24 hours, TNF-α",greater to a statistically significant extent
same,After culture with THF-α (Mean % cell death ± SE),"[1]; human IDDM patients, overnight early T-cell death, n=33 pairs",8.73 ± 0.96%
same,Annexin V staining after culture in the presence of TNF-α,"[2]; PBLs of two parallel non-diabetic control subjects, TNF-α 20 ng/mL, 12 hours, without TNF-α 5.0 and 9.0%",5.5% and 7.5%
same,After culture with THF-α (Mean % cell death ± SE),"[2]; human random controls, overnight early T-cell death, n printed 3",8.02 ± 0.85%
same,extent of Trypan Blue uptake,[3],further increasing Trypan Blue uptake
same,extent of Trypan Blue uptake,[4],did not significantly alter
same,Viability (%),[5],96%
same,Death (%),"[5]; Control subject, CD3+ cells, TNF-α +, without TNF-α 5",4%
same,Total Cell Count,"[5]; Control subject, CD3+ cells, TNF-α +, without TNF-α 2000",2200
same,Viability (%),[6],93%
same,Death (%),"[6]; Type I diabetic, CD3+ cells, TNF-α +, without TNF-α 5",7%
same,Total Cell Count,"[6]; Type I diabetic, CD3+ cells, TNF-α +, without TNF-α 1900",1900
same,change in splenocyte viability on TNF-α treatment (decrease),"[7]; NOD diabetic mice, n=17, T cell populations, FIG. 16",−2.7+/−0.9
same,"viability change of non-T cells, TNF-α treated vs untreated","[7]; NOD mice non-T cells, n=12, FIG. 18B",4.6%
same,viability of splenocytes treated with TNF-α,[8],69.7%
same,"viability change of non-T cells, TNF-α treated vs untreated","[8]; B6 mice non-T cells, n=12, FIG. 18B",5.0%
same,change in splenocyte viability on TNF-α treatment (increase),"[8]; control B6 mice, n=17, T cell populations, FIG. 16",1.0+/−0.5
